The text below walks through data of patent publication EP0312291A2, “Di-or tripeptide renin inhibitors containing lactam conformational restriction in ACHPA” (Merck & Co., Inc., priority 1987, dated 1989).

The test deals with T1, human plasma renin (Homo sapiens, UniProt P00797).
T1 construct: from tissue; host or cells: human plasma
T1 sequence (P00797 67-406): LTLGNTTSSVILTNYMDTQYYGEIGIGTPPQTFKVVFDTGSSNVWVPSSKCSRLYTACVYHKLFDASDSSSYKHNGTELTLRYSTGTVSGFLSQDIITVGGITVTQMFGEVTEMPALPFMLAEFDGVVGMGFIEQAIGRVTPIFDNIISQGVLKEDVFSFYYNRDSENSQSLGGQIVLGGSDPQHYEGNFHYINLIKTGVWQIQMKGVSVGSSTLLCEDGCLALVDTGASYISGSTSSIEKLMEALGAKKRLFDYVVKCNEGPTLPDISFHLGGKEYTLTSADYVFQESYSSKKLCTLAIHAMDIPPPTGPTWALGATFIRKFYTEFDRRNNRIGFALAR
The experiment in a line: Inhibition of human plasma renin, in vitro method of Boger et al., J. Med. Chem. (1985) 28, 1779. Type of test: biochemical. Here is the method:
Inhibition of human plasma renin was assayed using the in vitro method described by Boger, et. al., J. Med. Chem. (1985) 28, 1779.
Usually IC50 stands for the concentration that gives 50% inhibition. A lower IC50 goes with inhibition by little substance. As to `CN1CCC[C@@H]([C@H](O)[C@H](CC2CCCCC2)NC(=O)[C@H](Cc2c[nH]cn2)NC(=O)[C@H](Cc2ccccc2)NC(=O)OC(C)(C)C)C1=O` [Example 3A, Boc-Phe-His-(ACHP)-1-Methyl-2-Piperidinone], the midpoint of inhibition, the IC50, lay at 47 nM. Take `CN1CCCC[C@@H]([C@H](O)[C@H](CC2CCCCC2)NC(=O)[C@H](Cc2c[nH]cn2)NC(=O)[C@H](Cc2ccccc2)NC(=O)OC(C)(C)C)C1=O` [Example 3C, Boc-Phe-His-(ACHP)-1-Methylcaprolactam]: the IC50 turned out to be 203 nM. The molecule “Boc-Phe-His-(ACHP)-4-Methyl-3-Morpholinone [Example 3B]” showed an IC50 of 31 nM.
